How the values were obtained:
[1] = tested on: SOD, GSH, CAT, TAC; assay: Oxidative stress markers in serum of EAC-bearing mice; assay type: in vivo
Protocol: The mice were divided into the following eight groups (10 mice in each group): • Control group: Mice were intraperitoneally injected with a vehicle (2% DMSO + sterile saline) for 12 days. • I, II, and III control groups: Healthy normal mice were intraperitoneally injected with 6, 12, and 18 mg/kg of complex (2), respectively, for 12 days. • EAC group: Mice were intraperitoneally injected by a single dose of 2.5 × 10^6 viable Ehrlich ascites carcinoma (EAC) cells in PBS. In brief, EAC cells were withdrawn from the EAC mouse’s intraperitoneal cavity, washed, and centrifuged three times with sterile saline. Then, the pellets were suspended in sterile PBS and counted by the trypan blue exclusion assay, which confirmed that the viability of the cells was 98%. • I, II, and III treated groups: Firstly, 30 healthy mice were intraperitoneally injected with a single dose of 2.5 × 10^6 viable EAC cells. After one day; the mice were divided into I, II, and III treated groups (10 mice each group), intraperitoneally injected with 6, 12, and 18 mg/kg Ru(III) complex, respectively, for 12 days.
The animals were monitored for EAC growth by measuring abdominal size. At the end of the experiment all animals were fasted overnight then sacrificed. Serum samples were collected to study the biological parameters such as liver and kidney function as well as antioxidant enzyme activity. Liver samples from each group were frozen immediately in liquid nitrogen for molecular analysis.
The SOD activity in serum samples was evaluated as described by Dechatelet et al.. GSH was assayed in serum samples by detection of a yellow colored product following a reaction with 5,5’-dithiobis(2-nitrobenzoic acid) (DTNB). The catalase activity was estimated according to Aebi. Total antioxidant capacity (TAC) was determined by the method of Koracevic et al..

[2] = tested on: Caco2 cells; assay: DNA fragmentation (agarose gel), Caco2; assay type: cell-based, human; conditions: Caco2, 117.6 µg/mL, 4 h
Protocol: MCF7 and Caco2 cells were collected and genomic DNA was extracted using a Gene JET genomic DNA extraction kit following the manufacturer’s protocol (Thermo Scientific, #K0721). The extracted DNA samples were run on a 1.5% agarose gel at 50 V for 2 h and the fragment pattern was visualized by ethidium bromide staining under a UV transilluminator.

[3] = tested on: MCF7 cells; assay: Cell-cycle analysis by flow cytometry (PI), MCF7; assay type: cell-based, human; conditions: MCF7, 117.6 μg/mL, 24 h
Protocol: The Ru(III) complex (2) (117.6 μg/mL) was added to MCF7 and Caco2 cells at a confluence of 70–80% and incubated for 24 h (in a CO2 incubator). The cells were then digested with warm trypsin-EDTA + warm PBS-EDTA (0.25%) (500 + 500 μL) with incubation for 10 min at 37 °C. The mixture was centrifuged (450 rpm) for 5 min, then the supernatant was removed. The mixture was washed twice in warm PBS and the cell pellet was re-suspended in 500 µl warm PBS, centrifuged and the supernatant decanted. A volume of 150 μL PBS + 350 μL ice-cold 70% ethanol was added and incubated at 4 °C for 1 h to fix the cells. To remove ethanol, the mixture was centrifuged at 350 rpm for 10 min and then the supernatant was removed. The mixture was washed twice in warm PBS and the cells were re-suspended in 500 μL of warm PBS, centrifuged, and the supernatant was removed. The cells were resuspended in 100 μL PBS and stored at 4 °C for up to four days. In darkness, the cells were stained with 100 µL of propidium iodide (PI) solution + 50 µL RNase A solution (100 µg/mL) and incubated in darkness for 30–60 min. The stained cells were read in an Attune flow cytometer (Applied Bio-system, Foster City, CA, USA).

[4] = Solution stability by UV-Vis spectroscopy; assay type: physicochemical; conditions: 4% DMSO, 96% PBS, pH 7.4, over 24 h
Protocol: Stability studies of complexes (1) and (2) were carried out by UV-Vis spectroscopy in the 200–900 nm range. […] The electronic spectra for the solutions were measured over 24 h.

[5] = tested on: human breast cancer (MCF7) cells; assay: MTT cell viability assay, MCF7; assay type: cell-based; conditions: 24 h
Protocol: The cytotoxic effect of the Hapbim ligand and its complexes (1) and (2) on human breast cancer (MCF7), human colorectal cancer (Caco2), and human normal liver (THLE-2) cell lines was evaluated by the MTT assay. The cells were cultured in a 96-well plate (1 × 10^4 cells/well, 100 μL/well) containing DMEM medium provided with 10% fetal bovine serum, and 1% penicillin/streptomycin. Then, the cells were incubated at 37 °C for 24 h in a CO2 incubator under 5% CO2, 95% air until reaching a confluence of 70–80%. A 20 μL volume of each compound at different concentrations (from 5 to 400 μM for the cancer cell and from 600 to 1000 μM for the normal cells) was added and the cells were re-incubated for a further 24 h. After the incubation period, the cells were incubated again with 5 mg/mL of MTT for 4 h and then the medium was replaced with 100 μL DMSO and vortexed for 20 min. Finally, the absorbance was recorded at 570 nm using the microplate reader. […] To calculate the cell inhibition percentage, the following equation was used:% Cell inhibition = 100 − % cell viability ((At − Ab)/(Ac − Ab)) × 100%)(4) where At is the absorbance value of tested compound; Ab is the absorbance value of blank; Ac is the absorbance value of the control.

[6] = tested on: Bcl2 gene expression; assay: Real-time qPCR of liver tissue, Bcl2; assay type: in vivo; conditions: liver tissue of EAC-bearing mice, vs untreated
Protocol: RNA was isolated from liver tissues using a RNeasy Mini kit. The integrity and purity of RNA were assessed by 1% agarose gel electrophoresis and nanodrop, respectively. The obtained RNA was reverse transcribed to yield cDNA using Quantiscript reverse transcriptase. Specific primers for Bax, caspase 3, and Bcl2 genes in addition to the housekeeping gene, β actin were designed by the Primer 3 web-based tool based on the published mice sequences (Table 5). Quantitative real-time PCR (qPCR) was performed using QuantiTect SYBR Green qPCR Master Mix in a StepOnePlus real-time PCR system and the melting curve condition and fold change calculation were done as previously described.

[7] = three treated groups vs untreated EAC group

## CS(C)=O.Nc1ccccc1-c1nc2ccccc2[nH]1.O.[Cl][Ru]([Cl])[Cl] [(2), [Ru(III)Cl3(DMSO)(Hapbim)]·H2O]
[1]; I (6 mg/kg), II (12 mg/kg), III (18 mg/kg) treated groups vs untreated EAC group
  SOD levels: elevated
[1]; [7]
  CAT levels: increased
  GSH levels: increased
[1]; three treated groups vs untreated EAC group, p < 0.0001
  total antioxidant capacity (TAC): significantly increased
[2]
  DNA fragmentation: distinct DNA laddering
[3]
  cells in G0/G1 phase: 24%
  cells in G2/M phase: 55%
  cells in S phase: 21%
[4]
  solution stability (UV-Vis spectral change): changes in absorption bands near 288, 326, and 690 nm after 1 h
[5]
  IC50 MCF-7: 118 ± 8 µg/mL
[5]; read-out: IC50 MCF-7
  IC50: 230 ± 10 µM
[6]
  Bcl2 gene expression: significant dose-dependent reduction
